According to patent US20070111251A1, “Chemical address tags” (priority 2003, published 2007):

Assays:
mitochondria = assay: QSLR factorial logistic regression of mitochondrial localization (affinity coefficients, cross-validated prediction); design: species or system human; details: for αi^mito: influence of A group on mitochondrial localization, greater = stronger; for estimated A group affinity coefficient ai / estimated B group affinity coefficient bj: mitochondrial affinity; for estimated A group affinity coefficient ai: ±5 for groups always or never mitochondrial; for βj^mito: influence of B group on mitochondrial localization
From the text: The first column and first row contain the A group and B group labels. The second column and second row contain the estimated A group and B group affinity coefficients (ai and bj respectively). The interior of the table contains the value sij=ai+bj for each compound (where positive values of sij indicate predicted localization to mitochondria, and negative values of sij indicate predicted localization to a non-mitochondrial compartment). The subscript m indicates experimentally determined mitochondrial localization. The subscript o indicates experimentally determined non-mitochondrial localization. The darkened boxes indicate correctly predicted mitochondrial localizations under cross-validation.
Based on this matrix, factorial logistic regression (See, A. Agresti, Categorical Data Analysis, Wiley [2002]) was used to calculate mitochondrial affinity coefficients (ai and bj) for each A and B moiety. (Table 1). Since it is not necessary to observe all possible pairings between A and B building blocks to estimate the affinity coefficients, the QSLR approach can predict localization of unmeasured styryl molecules based on a minimal set of experimentally-determined localizations (see Methods). The methods of the present invention allow assessment of predictivity using the cross-validation technique by holding out one compound and fitting the affinity coefficients using the remaining compounds, predictivity can be assessed by comparing the actual localization of the held-out compound to its predicted localization. Repeating this for every measured compound in the library yields an error rate for the procedure.
Briefly, this technique assigns quantitative scores to each A group (αi^mito) and to each B group (βj^mito), in such a way that αi^mito+βj^mito is positive for compounds with mitochondrial localization, and is negative for compounds lacking mitochondrial localization. […] In additional embodiments, same analysis can be applied to organelles other than mitochondria, provided there are a sufficient number of localizations to specific non-mitochondrial organelles in the combinatorial library of interest for reliable statistical calculations.
In certain embodiments, the predictive performance of the above method was assessed using a cross-validation approach by calculating the proportion of all compounds that are correctly predicted. For cross-validation, each styryl product was set aside in sequence, and the factorial logistic model was fit to the remaining data. Then the resulting A and B scores for the held-out compound were summed. If the sum was positive, the held-out compound was predicted to be mitochondrial, while if the sum was negative, the held-out compound was predicted to be non-mitochondrial. […] The baseline performance of the method scored 104 correct out of 145, or 72%. This number is highly statistically significant compared to random guessing (p-value ˜10^−7). Thus, across the entire library, A and B moieties appear to contribute to localization in an independent, additive fashion.
In some embodiments, subcellular localization data were converted to binary (0/1) values by assigning a value Gij=1 if compound i,j localized to mitochondria (even if it localized to other […] as well), and assigning Gij=0 if compound i,j localized exclusively to any non-mitochondrial cellular structure. Compounds with no localization were omitted from this part of the analysis. The αi and βj coefficients for A or B groups that are always observed to localize to mitochondria, or that never localize to mitochondria, were set to +/−5, respectively. The binary localization data were analyzed using factorial logistic regression. […]

[1] = Additive decomposition of peak excitation and emission wavelengths (model coefficients of A and B groups); details: for αi^em: influence of A group on peak emission wavelength; for αi^em / αi^ex: A group 1 as baseline; for αi^ex: influence of A group on peak excitation wavelength; for βj^em: influence of B group on peak emission wavelength; for βj^em / βj^ex: B group 1 as baseline; for βj^ex: influence of B group on peak excitation wavelength
From the text: The chemical structure of the styryl library is illustrated in FIG. 3. […] Initial analysis focused on measurements of peak emission and excitation wavelength obtained for all styryl products showing a single, localized peak (there were 256 such compounds for emission wavelength, and 193 compounds for excitation wavelength). […] The wavelength for the styryl compound formed by joining A group i with B group j is denoted as λij (or more specifically, λij^ex for excitation wavelength and λij^em for emission wavelength). The additive model λij=ai+βj+εij was fit to the data using least squares yielding parameters αi^ex, αi^em, βj^ex, and βj^em that quantify the influence of each A and B group on the spectrum of the styryl product. […] (FIGS. 8A-8B). […] The predictions were made ignoring interactions between the two functional moieties in the styryl compound. The predicted values were obtained without bias, by holding out the data point to be predicted when training the model.
In preferred embodiments, using the cross-validation approach disclosed herein, each compound was held out in sequence, the model was trained using the remaining compounds, then the wavelength value for the held-out compound was predicted based on the resulting fitted model. This process produced correlations between measured and predicted values of ρ^em=0.78 (emission) and ρ^ex=0.69 (excitation).
Based on this analysis, the contribution of the A and B functional groups to the fluorescence of the styryl product is quantified using the fitted coefficients αi^ex, βj^ex, […], and βj^em. Since these coefficients are on a scale without origin, in some embodiments, the invention uses the first A group and B group as a baseline, so […], β1^ex=0, and so on. Table 3 contains the model coefficients of all A and B groups for peak excitation and emission wavelength.
Greater values of αi^ex, αi^em, βj^ex, and βj^em indicate greater peak wavelength. Greater values of αi^mito and […] indicate stronger mitochondrial localization. A groups 40 and 41 were not screened for localization. A groups 2, 29, and 33 only formed fluorescent products with a single B group, so were not included in the spectral analysis.
In some embodiments, the wavelength values for peak excitation and emission were fit to the additive model λij=αi+βj+εij, where εij denotes error that is made as small as possible in the fitting process. Using least squares to minimize the function [formula] over all compounds having experimental data yields coefficient estimates αi for each A group and βj for each B group. One set of coefficient estimates is obtained for the excitation values and another set is obtained for the emission values. To predict the wavelength of a new compound formed from A and B groups i* and j* the sum αi*+βj* is used.
In some embodiments, for both the spectral and localization analysis, cross-validation was used to obtain unbiased estimates of the prediction performance. Each compound was held out in sequence, and the coefficients αi and βj were fit to the remaining compounds. These values were then used to form a prediction for the held out compound, then the predicted and experimental values were compared to obtain a measure of the accuracy of prediction. Since the wavelength values are on a continuous scale, the predicted values were compared to the experimental values using Pearson correlation coefficients. The localization values are dichotomous, so the proportion of matching predictions was used to compare predicted and experimental localization values.

| Compound | αi^mito (mitochondria) | estimated A group affinity coefficient ai (mitochondria) | αi^em [1] [nm] | αi^ex [1] [nm] | influence of A group on mitochondrial localization (mitochondria) | influence of group on peak wavelength [1] | βj^mito (mitochondria) | estimated B group affinity coefficient bj (mitochondria) | βj^em [1] [nm] | βj^ex [1] [nm] |
| --- | --- | --- | --- | --- | --- | --- | --- | --- | --- | --- |
| O=Cc1c(F)c(F)c(F)c(F)c1F [A group 31] | 5.0 | 5.0 | 6.9 | −22.4 |  |  |  |  |  |  |
| O=Cc1ccc(-c2ccccc2)cc1 [A group 17] | −5.0 | −5.0 | −46.6 | −14.3 | mitochondrial repulsion | bluer |  |  |  |  |
| CN(C)c1ccc(C=O)cc1 [A group 19] | −0.2 | −0.2 | 49.6 | 26.0 |  | strongly contribute towards the red end of the spectrum |  |  |  |  |
| O=Cc1cccc2ccccc12 [A group 32] | 5.0 | 5.0 | −15.0 | −36.1 |  |  |  |  |  |  |
| O=Cc1ccc(O)cc1 [A group 16] | −1.9 | −1.9 | −24.8 | −36.3 |  |  |  |  |  |  |
| Cc1cc[n+](C)c2ccccc12.[I-] [B group 7] |  |  |  |  |  | strongly contribute towards the red end of the spectrum | 3.5 | 3.5 | 63.7 | 29.6 |
| Cc1cc[n+](C)c(C)c1.[I-] [B group 11] |  |  |  |  |  |  | 2.1 | 2.1 | −4.1 | −4.2 |
| Cc1ccc(C=O)cc1 [A group 8] | 5.0 | 5.0 | 38.5 | 10.9 |  |  |  |  |  |  |
| COc1ccc(C=O)cc1O [A group 15] | −0.6 | −0.6 | −33.1 | −46.9 |  |  |  |  |  |  |
| O=CC=Cc1ccccc1 [A group 35] | −1.8 | −1.8 | −8.3 | 0.0 |  |  |  |  |  |  |
| O=Cc1c[nH]c2ccccc12 [A group 24] | −1.7 | −1.7 | −24.2 | −7.2 |  |  |  |  |  |  |
| O=Cc1ccc2c(c1)OCO2 [A group 39] | 0.0 | 0.0 | −25.3 | −28.3 |  |  |  |  |  |  |
| O=Cc1ccccc1[N+](=O)[O-] [A group 20] | −2.7 | −2.7 | 44.5 | 6.5 |  | the far red shift is not observed |  |  |  |  |
| COc1ccc(C=O)cc1OC [A group 11] | 5.0 | 5.0 | −26.7 | −14.3 |  |  |  |  |  |  |
| CCc1ccc(C)[n+](C)c1.[I-] [B group 5] |  |  |  |  |  |  | 2.2 | 2.3 | −7.6 | −1.6 |
| O=Cc1ccc2c(c1)Cc1ccccc1-2 [A group 28] | −5.0 | −5.0 | 44.9 | 2.4 |  |  |  |  |  |  |
| O=Cc1ccc(OCc2ccccc2)c(OCc2ccccc2)c1 [A group 12] | −3.3 | −3.3 | −22.7 | −36.7 |  |  |  |  |  |  |
| Cc1ccc[n+](C)c1C.[I-] [B group 4] |  |  |  |  |  |  | 3.0 | 3.0 | −23.2 | −32.3 |
| Cc1cccc(C)[n+]1C.[I-] [B group 12] |  |  |  |  |  |  | 2.7 | 2.7 | −1.7 | −10.2 |
| COc1ccc2ccccc2c1C=O [A group 23] | −5.0 | −5.0 | −10.3 | 6.1 |  |  |  |  |  |  |
